Molecular target: T1, bovine serum albumin (BSA) (Bos taurus, UniProt P02769)
T1 construct: gene ALB
Test: BSA intrinsic fluorescence quenching titration (Stern-Volmer; λex = […] nm, […] BSA), supported by chlorin fluorescence increase and DLS
Type: binding
Conditions: read-out: BSA intrinsic fluorescence quenching titration (Stern-Volmer); λex = 290 nm, 5 μM (converted)

T1 sequence (P02769 25-607): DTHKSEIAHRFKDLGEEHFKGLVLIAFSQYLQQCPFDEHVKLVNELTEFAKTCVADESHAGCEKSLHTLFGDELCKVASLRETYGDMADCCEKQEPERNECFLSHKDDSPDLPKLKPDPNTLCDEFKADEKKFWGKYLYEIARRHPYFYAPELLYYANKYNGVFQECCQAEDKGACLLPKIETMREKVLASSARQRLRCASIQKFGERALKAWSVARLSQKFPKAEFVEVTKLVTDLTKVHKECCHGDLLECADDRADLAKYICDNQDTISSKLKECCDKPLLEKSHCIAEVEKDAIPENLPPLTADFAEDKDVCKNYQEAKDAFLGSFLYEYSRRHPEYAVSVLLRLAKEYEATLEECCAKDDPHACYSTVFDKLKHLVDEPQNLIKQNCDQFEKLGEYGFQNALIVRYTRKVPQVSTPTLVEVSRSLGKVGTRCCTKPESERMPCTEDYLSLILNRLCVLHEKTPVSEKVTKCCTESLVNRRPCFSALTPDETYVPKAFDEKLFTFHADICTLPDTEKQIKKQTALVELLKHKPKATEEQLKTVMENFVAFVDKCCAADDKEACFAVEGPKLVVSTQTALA

## CCC1=C(C)c2cc3[nH]c(cc4nc(c(CC(=O)OC)c5[nH]c(cc1n2)c(C)c5C(=O)NC)[C@@H](CCC(=O)OC/C=C(\C)CCCC(C)CCCC(C)CCCC(C)C)[C@@H]4C)c(C)c3C(=CC[N+](C)(C)C)C[N+](C)(C)C (mixture of isomers) [compound 1, 3(1),3(2)-bis(N,N,N-trimethylaminomethyliodide) chlorin e6 13(1)-N-methylamide-15(2)-methyl,17(3)-phytyl ester]
  Kd: 2.74 µM
